{
  "source": "patent US6846802B2",
  "about": "“Macrocyclic NS3-serine protease inhibitors of hepatitis C virus comprising N-cyclic P2 moieties” (priority 2000, dated 2005)",
  "note": "Starred links: 1 amine or outer side, 2 acyl side, 3 side chain; linkers in the order of their positions; H or OH if unused. Positions of bridges follow the written chain, without caps; N, C: chain ends. Non-standard residues stand in square brackets, D forms with d. Residues, ends and D or L forms follow the SMILES beside them. Tic(7-O(CH2)6CO) = O=C([C@@H]1Cc2ccc(OCCCCCCC(=O)[*:3])cc2CN1[*:1])[*:2]; X1 = CCC[C@H](N[*:1])C(=O)C(=O)[*:2]; Chg = N[C@H](C(=O)O)C1CCCCC1; Phg = N[C@H](C(=O)O)c1ccccc1",
  "data": [
    {"biological_target": "HCV serine protease (subtype 1b, 1bNS4A21-32GS-GS NS3-81 I17K) in HeLa/Huh7 cells (Hepatitis C virus genotype 1b, UniProt P26663, I1043K)", "assay_type": "cell-based", "units": {"Cell-Based Assay": "µM"}, "values": [
      {"smiles": "CCCC(NC(=O)[C@@H]1C[C@@H]2CN1C(=O)[C@H](C1CCCCC1)NC(=O)Cc1cccc(c1)OCCCCO2)C(=O)C(=O)NCC(=O)N[C@H](C(=O)OC(C)(C)C)c1ccccc1", "note": "(mixture of isomers) [Compound 5]", "Cell-Based Assay": 0.6},
      {"smiles": "CCCC(NC(=O)[C@@H]1C[C@@H]2CN1C(=O)[C@H](C1CCCCC1)NC(=O)Cc1cccc(c1)OCCO2)C(=O)C(=O)NCC(=O)N[C@H](C(=O)OC(C)(C)C)c1ccccc1", "note": "(mixture of isomers) [Compound 8]", "Cell-Based Assay": 3.5},
      {"smiles": "CCCC(NC(=O)[C@@H]1Cc2ccc3cc2CN1C(=O)[C@H](C1CCCCC1)NC(=O)CCCCCCO3)C(=O)C(=O)NCC(=O)N[C@H](C(=O)OC(C)(C)C)c1ccccc1", "note": "(mixture of isomers) [Compound 58]", "Cell-Based Assay": 2},
      {"smiles": "CCCC(NC(=O)[C@@H]1C[C@@H]2CN1C(=O)[C@H](C1CCCCC1)NC(=O)Cc1cccc(c1)OCCCO2)C(=O)C(=O)NCC(=O)N[C@H](C(=O)OC(C)(C)C)c1ccccc1", "note": "(stereo partly shown) [Compound 2]", "Cell-Based Assay": 2},
      {"smiles": "CCC[C@@H](NC(=O)[C@@H]1C[C@@H]2CN1C(=O)[C@H](C1CCCCC1)NC(=O)Cc1cccc(c1)OCCCCO2)C(=O)C(=O)NCC(=O)N[C@H](C(=O)N(C)C)c1ccccc1", "note": "[Compound 4A]", "Cell-Based Assay": 2.5},
      {"smiles": "CCC[C@H](NC(=O)[C@@H]1C[C@@H]2CN1C(=O)[C@H](C1CCCCC1)NC(=O)Cc1cccc(c1)OCCCCO2)C(=O)C(=O)NCC(=O)N[C@H](C(=O)N(C)C)c1ccccc1", "note": "[Compound 4B]", "Cell-Based Assay": 1.8},
      {"smiles": "CCC[C@H](NC(=O)[C@@H]1C[C@@H]2CN1C(=O)[C@H](C(C)(C)C)NC(=O)Cc1cccc(c1)OCCCO2)C(=O)C(=O)NCC(=O)N[C@H](C(=O)N(C)C)c1ccccc1", "note": "[Compound 12B]", "Cell-Based Assay": 5.2},
      {"smiles": "CCCC(NC(=O)[C@@H]1C[C@@H]2CN1C(=O)[C@H](C1CCCCC1)NC(=O)CCc1cccc(c1)OCCO2)C(=O)C(=O)NCC(=O)N[C@H](C(=O)OC(C)(C)C)c1ccccc1", "note": "(stereo partly shown) [Compound 21]", "Cell-Based Assay": 2},
      {"smiles": "CCCC(NC(=O)[C@@H]1C[C@@H]2CN1C(=O)[C@H](C1CCCCC1)NC(=O)Cc1cccc(c1)OCCCO2)C(=O)C(=O)NCC(=O)OCc1ccccc1", "note": "(stereo partly shown) [Compound 23]", "Cell-Based Assay": 3},
      {"smiles": "CCC[C@H](NC(=O)[C@@H]1Cc2ccc3cc2CN1C(=O)[C@H](C1CCCCC1)NC(=O)CCCCCCO3)C(=O)C(=O)NCC(=O)N[C@H](C(=O)N(C)C)c1ccccc1", "note": "[Compound 57B] ([Chg][Tic(7-O(CH2)6CO)][X1]G[Phg]-NMe2; lactam N-2)", "Cell-Based Assay": 1.5}
    ]}
  ]
}
